According to PMC7865555, “Mechanistic Studies of the Antiallergic Activity of Phyllanthus amarus Schum. & Thonn. and Its Compounds” (Molecules, 2021):
Values joined by “and” are separate entries in the source; they are usually repeats but may differ in a detail not shown here. Identical values can stand only once. Counter-ions that a name gives are not always drawn.

Legend:
[1] = Cell viability (MTT) assay on RBL-2H3 cells; assay type: cell-based, rat; conditions: rat, RBL-2H3 cells; for viability at 4 h, 2.5 µg/mL: RBL-2H3, 2.5 µg/mL; for viability at 4 h, 5 µg/mL: RBL-2H3, 5 µg/mL; for viability at 4 h, 10 µg/mL: RBL-2H3, 10 µg/mL; for viability at 4 h, 25 µg/mL: RBL-2H3, 25 µg/mL; for viability at 4 h, 50 µg/mL: RBL-2H3, 50 µg/mL; for viability at 4 h, 100 µg/mL: RBL-2H3, 100 µg/mL
Method: (§1) RBL-2H3 cells were obtained from the Japanese Collection of Research Bioresources (JCRB) cell bank with a cell number of JCRB0023. The cells were cultured in enriched media (MEM containing 10% FBS and 1% penicillin-streptomycin (10 000 U/mL)). Once the cells reaching passage 3 (P3) with 80% confluency and showing stable growth and morphology, the cells were used for the bioassays. Only cells from passage 3 (P3) to passage 5 (P5) were used for the bioassays’ studies.
(§2) The cell viability assay was conducted as reported by Shahari, et al.. RBL-2H3 cells were seeded in 96-well plates in 100 µL at the concentration of 5 × 10^5 /mL. […] The cells were incubated for 4 h. 10 µL of MTT (5 mg/mL in PBS buffer) was added to the mixture and was incubated for 4 h at 37 °C. Upon the appearance of purple formazan crystal, the media was removed and 100 µL of DMSO was added to the well plates to dissolve the crystal. After 10 min of shaking the well plates on a shaker, the absorbance was immediately measured using a microplate reader at 570 nm.

RBL-2H3 cell line = experiment: Cell viability (MTT) assay on RBL-2H3 cells; assay type: cell-based, rat; conditions: for Toxicity towards the cell (in words): RBL-2H3, all concentrations tested; for Concentration safe on the cell: RBL-2H3, maintaining approximately 70% cell viability
Method: as §1, §2

[2] = tested on: beta-hexosaminidase release from RBL-2H3; experiment: Inhibitory effect on beta-hexosaminidase release from RBL-2H3 (IgE/DNP-BSA); assay type: cell-based, rat
Method: The bioassay was conducted as reported by Abd Rani, et al.. In the concentration of 2 × 10^5 cells in 400 µL per well, RBL-2H3 cells were seeded and incubated for 2 h. After 2 h, the cells were sensitized with anti-DNP IgE at a concentration of 0.45 µg/mL in 100 µL per well. The cells were incubated overnight until 80% confluent. The cells were washed with 500 µL Siraganian buffer (119 mM of sodium chloride (NaCl), 5 mM of potassium chloride (KCl), 5.6 mM of glucose, 0.4 mM of magnesium chloride (MgCl2), 1 mM of calcium chloride (CaCl2), 25 mM of piperazine-N,N′-bis(2-ethanesulfonic acid) (PIPES), 40 mM of sodium hydroxide (NaOH), 0.1% BSA; pH 7.2) twice before were added with 160 µL of Siraganian buffer and incubated for 10 min. The cells were then treated with different concentrations of test samples in 20 µL. After 10 min of incubation, allergen, DNP-BSA at a concentration of 10 mg/mL were added to the cells. The cells were incubated for another 30 min. The supernatant (50 µL) was transferred into 96-well plates and was added immediately with 50 µL of the substrate ([…] p-nitrophenyl-N-acetyl-β-D-glucosaminide in 0.1 M citrate buffer, pH 4.5). The cells were further incubated for 1 h and the reaction was stopped using a 200 µL stop solution (0.1 M Na2CO3/NaHCO3, pH 10.0). The absorbance was measured using the microplate reader at 405 nm. The percentage of inhibition was measured using Equation (1). Control cell was assumed to have 100% beta-hexosaminidase release with allergen added without any treatment while the normal cell was assumed to have 0% beta-hexosaminidase release with cell without any allergen and treatment added to the well. The blank well consisted of the test sample. Ketotifen fumarate was used as a positive control. (1) Percentage inhibition % = (1− OD test sample−OD blank−OD normal/OD control−OD normal) × 100

[3] = target: T1, Histamine H1 (human) membrane preparation, in CHO-K1 cells (Homo sapiens, UniProt P35367); experiment: Radioligand competition binding assay (3H-mepyramine); conditions: for Ki: read-out: Radioassay (Ki)
T1 construct: purchased Perkin Elmer (Waltham, MA, USA); host or cells: CHO-K1 cells (recombinant expression, membrane preparation)
T1 sequence (P35367 whole entry): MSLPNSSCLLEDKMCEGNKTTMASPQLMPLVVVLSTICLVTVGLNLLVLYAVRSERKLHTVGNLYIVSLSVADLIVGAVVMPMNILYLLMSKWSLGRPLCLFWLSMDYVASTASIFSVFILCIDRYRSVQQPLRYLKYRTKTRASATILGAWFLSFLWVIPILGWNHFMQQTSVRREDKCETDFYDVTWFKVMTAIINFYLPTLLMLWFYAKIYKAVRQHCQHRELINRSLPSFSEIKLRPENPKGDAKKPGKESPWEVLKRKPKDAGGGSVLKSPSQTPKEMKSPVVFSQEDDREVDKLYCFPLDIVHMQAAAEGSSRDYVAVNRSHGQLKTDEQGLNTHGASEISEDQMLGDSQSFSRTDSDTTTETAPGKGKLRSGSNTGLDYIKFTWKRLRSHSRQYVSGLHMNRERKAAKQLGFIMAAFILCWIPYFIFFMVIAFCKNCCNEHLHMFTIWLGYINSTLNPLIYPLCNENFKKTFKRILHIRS
Method: In determining the affinity of the ligands toward the receptor, competition radioligand binding was conducted. The assay was conducted by measuring the competition binding between a radioligand with a ligand. The concentration of the radioligand with the presence of the ligand and the receptor was determined by using a liquid scintillation counter. […] The Ki value which also known as the binding affinity of the ligand was determined using GraphPad Prism.
Pyrilamine (Mepyramine), [pyridinyl 5-3H], Membrane Target Systems: Histamine H1 (human) membrane preparation, in CHO-K1 cells, liquid scintillation cocktail (ULTIMA GOLD MV), pico pro vial, and glass fiber (GF) filter were obtained from Perkin Elmer (Waltham, MA, USA).
In preparation for bioassay analysis, 10 mg of test samples were dissolved in 1 mL of DMSO and were treated as the stock sample. […] The working test sample together with its stock sample were kept in 4 °C until further used.
The radioligand assay was conducted as reported by Strakhova and Esbenshade. […] The mixture was immediately added with 200 µL of histamine receptor membrane (5 µg protein/well). The mixture was incubated for an hour at room temperature while shaking on the shaker. After an hour incubation, the mixture was harvested on GF/B uni filter presoaked with 0.5% PEI for 3 min. The GF/B uni filter was rinsed a few times with a wash buffer before being dried for one and a half hours. Once the uni filter was dry, the punched filter was transferred to 4 mL pico pro vial and was soaked with 2 mL of liquid scintillation cocktail. The solution was vortexed for a few seconds before being quantified using the liquid scintillator. Ki value (nmol/L) was obtained by using Equation (3).

[4] = tested on: histamine release from RBL-2H3; experiment: Inhibitory effect on histamine release from RBL-2H3 (ELISA); assay type: cell-based; conditions: Rattus norvegicus, mean ± SEM, n = 3, read-out: Inhibitory activity towards histamine release
Method: The bioassay was conducted as reported by Shahari, et al. and Abd Rani, et al.. In 24-well plates, 2 × 10^5 of RBL-2H3 cells were seeded in 400 µL per well. The cells were sensitized with 0.45 µg/mL anti-DNP IgE in 100 µL after two hours of incubation. The cells were incubated overnight until reaching 80% confluency. The cells were washed twice with 500 µL of enriched media before being constituted with 320 µL enriched media. After 10 min of incubation, the cells were treated with 40 µL of different concentration of test compounds and was incubated for another 10 min. The cells were treated with 20 µL of allergen, DNP-BSA (10 mg/mL), and further being incubated for another 30 min. The supernatant obtained was transferred into a microcentrifuge tube, and centrifuged for 20 min at 1000× g at 8 °C. The supernatant was transferred to the Histamine ELISA kit and the histamine quantification was conducted based on the ELISA manufacturer protocol given. The percentage of inhibition was measured using Equation (2). The control cell was assumed to have 100% histamine release with allergen added without any treatment while blank well corresponded to 0% cytokine release. Ketotifen fumarate was used as a positive control. (2) Percentage inhibition % = (1− OD test sample−OD blank/OD control−OD blank) × 100

[5] = Rattus norvegicus, mean ± SEM, n = 3, read-out: Inhibitory activity towards beta-hexosaminidase release
[6] = pH 7.4, 1 h incubation, 3H-mepyramine

Ki [3, 6] | SMILES | viability at 4 h, 2.5 µg/mL [1] | viability at 4 h, 5 µg/mL [1] | viability at 4 h, 10 µg/mL [1] | viability at 4 h, 25 µg/mL [1] | viability at 4 h, 50 µg/mL [1] | viability at 4 h, 100 µg/mL [1] | Toxicity towards the cell (in words) (RBL-2H3 cell line) | inhibition at 10 µg/mL [2, 5] | inhibition at 25 µg/mL [2, 5] | inhibition at 50 µg/mL [2, 5] | Concentration safe on the cell (RBL-2H3 cell line) | Inhibition of beta-hexosaminidase release (in words) [2] | inhibition at 2.5 µg/mL [2, 5] | inhibition at 5 µg/mL [2, 5] | inhibition at 2.5 µg/mL [4] | inhibition at 5 µg/mL [4] | inhibition at 10 µg/mL [4] | inhibition at 25 µg/mL [4] | also measured
– | O=C(O[C@@H]1O[C@@H]2COC(=O)c3cc(O)c(O)c(O)c3-c3c(cc(O)c(O)c3O)C(=O)O[C@H]([C@H]1O)[C@@H]2O)c1cc(O)c(O)c(O)c1 [Corilagin (4), corilagin] | 87.1 ± 4.31% | 81.1 ± 14.8% | 93.7 ± 15.4% | 103 ± 12.1% | 104 ± 7.35% | 101 ± 7.2% | not toxic towards the cell | 2.43 ± 3.26% | 5.12 ± 2.09% | 6.68 ± 1.71% | – | – | – | – | – | – | – | – | Affinity towards the H1 receptor (in words) ([3]; competition radioligand assay): did not show any affinity towards the receptor; Radioassay (Ki) [3, 6]: Not converged
0.04 nM | COC[C@@H]1Cc2cc(OC)c3c(c2[C@H](c2ccc(OC)c(OC)c2)[C@H]1COC)OCO3 [Hypophyllanthin (2), hypophyllanthin] | 93 ± 9.69% | 91 ± 10.4% | 114 ± 8.89% | 62.46 ± 0.56% | 40.6 ± 4.17% | 28.1 ± 4.13% | – | – | – | – | below 25 µg/mL | inhibited the release of beta-hexosaminidase | 32.3 ± 4.99% | 32.3 ± 4.51% | 11.9 ± 64.3% | 71.2 ± 34.7% | – | – | inhibition at 1.25 µg/mL ([2]; Rattus norvegicus, 1.25 µg/mL, mean ± SEM, n = 3, read-out: Inhibitory activity towards beta-hexosaminidase release): 23.9 ± 3.31%; inhibition at 1.25 µg/mL ([4]; 1.25 µg/mL): 16.4 ± 46.6%
– | CN1CCC(=C2c3ccccc3CC(=O)c3sccc32)CC1 [Ketotifen fumarate, reference compound] | 91.9 ± 6.16% | 90.1 ± 3.89% | 86.8 ± 6.47% | 87.4 ± 1.17% | 83.8 ± 4.1% | 28.9 ± 4.87% | – | 22.2 ± 0.75% | 27.4 ± 0.58% | – | below 50 µg/mL | – | – | 17.7 ± 1.05% | – | 3.9 ± 6.8% | 44.7 ± 23% | 58.7 ± 23.2% | –
0.44 nM and 0.444 nM | COC[C@H](Cc1ccc(OC)c(OC)c1)[C@H](COC)Cc1cc(OC)c2c(c1)OCO2 [Niranthin (3), niranthin] | 104 ± 5.79% | 79.4 ± 8.96% | 96.5 ± 7.33% | 85.4 ± 11.6% | 96.63 ± 0.63% | 86.3 ± 12.4% | not toxic towards the cell | 29.3 ± 5.81% | 31.3 ± 7.43% | 32.1 ± 7.27% | – | inhibited the release of beta-hexosaminidase | – | – | – | 34.7 ± 12.2% | 59 ± 22.2% | 41.2 ± 31.2% | –
– | COC[C@@H](Cc1ccc(OC)c(OC)c1)[C@@H](COC)Cc1ccc(OC)c(OC)c1 [Phyllanthin (1), phyllanthin] | 92 ± 1.13% | 76.6 ± 3.77% | 84.3 ± 6.83% | 82.1 ± 4.03% | 74.2 ± 7.99% | 53.5 ± 0.65% | – | 38.4 ± 8.72% | – | – | below 50 µg/mL | inhibited the release of beta-hexosaminidase | 26.4 ± 3.18% | 37.9 ± 6.51% | -3.05 ± 7.93% | 55.8 ± 19.3% | -11.6 ± 70.8% | – | –
